Data set [1] concerns the target T1, human stromelysin (MMP-3) (Homo sapiens, UniProt P08254).
T1 construct: enzymatic activity of the catalytic domain of human stromelysin; made in house
The data set is described as follows: Inhibition of enzymatic activity of catalytic domain of stromelysin (fluorogenic substrate). It counts as biochemical. The following applies: pH 6.5, 15 min preincubation. As to the method:
(§1) Preparation and determination of the enzymatic activity of the catalytic domain of human stromelysin and of neutrophil collagenase.
(§2) The two enzymes—stromelysin (MMP-3) and neutrophil collagenase (MMP-8)—were prepared according to Ye et al. (Biochemistry; 31 (1992) pages 11231-11235) or Weithmann et al. (Inflamm Res 46(1997) 246-252). For measurement of the inhibitory action on the enzymatic activity, 70 μl of buffer solution and 10 μl of enzyme solution were incubated for 15 minutes with 10 μl of a 10% strength (v/v) aqueous dimethyl sulfoxide solution which optionally contained the enzyme inhibitor. After addition of 10 μl of a 10% strength (v/v) aqueous dimethyl sulfoxide solution which contained 1 mmol/l of the substrate, the enzyme reaction was monitored by fluorescence spectroscopy (328 nm (ex)/393 nm (em)). The enzyme activity was shown as the extinction increase/minute. The IC50 values listed in Table 2 were determined as those inhibitor concentrations which in each case led to a 50% inhibition of the enzyme. The buffer solution contained 0.05% of Brij (Sigma, Deisenhofen, Germany) and 0.1 mol/l of piperazine-N,N′-bis[2-ethanesulfonic acid]/NaOH, 0.1 mol/l of NaCl, 0.01 mol/l of CaCl2 and 0.1 mol/l of piperazine-N,N′-bis[2-ethanesulfonic acid] (pH=6.5). The enzyme solution contained 5 μg/ml of one of the enzyme domains prepared according to Ye et al. The substrate solution contained 1 mmol/l of the fluorogenic substrate (7-methoxycoumarin-4-yl)acetyl-Pro-Leu-Gly-Leu-3-(2′,4′-dinitrophenyl)-L-2,3-diaminopropionyl-Ala-Arg-NH2 (Bachem, Heidelberg, Germany).

The target in data set [2] is T2, neutrophil collagenase (MMP-8) (Homo sapiens, UniProt P22894).
T2 construct: catalytic domain of human stromelysin and of neutrophil collagenase; made in house
The data set is described as follows: Inhibition of enzymatic activity of catalytic domain of neutrophil collagenase (fluorogenic substrate). It counts as biochemical. To be noted: pH 6.5, 15 min preincubation. The procedure: as §1, §2

Data set [3] in a line: Determination of the solubility in water (HPLC against external standard). It counts as physicochemical. The procedure:
Determination of the solubility in water of the free acid of 2-(4′-chloro-biphenyl-4-sulfonylamino)-5-(5-fluoro-2,3-dihydroindol-1-yl)-5-oxopentanoic acid according to Example 8 and its tromethamine salt according to Example 15
Approximately 50 mg of test substance according to 1.1a) were initially introduced into a 100 ml Erlenmeyer flask. After addition of 10 ml of water, the mixture was stirred at 25° C. After 2 hours (h) and after 3 h, aliquots were taken and centrifuged. 1 ml each of the supernatant was diluted to 10 ml with mobile phase. The concentration of the active component was determined by means of HPLC against an external standard. Repetition of the experiment.
Approximately 800 mg of the tromethamine salt according to 1.1b) were initially introduced into a 100 ml Erlenmeyer flask. After addition of 10 ml of water, the mixture was stirred at 25° C. After 2 h and after 3 h, aliquots were taken and centrifuged. 1 ml each of the supernatant was diluted to 100 ml with mobile phase. The concentration of the active component was determined by means of HPLC against an external standard. Repetition of the experiment.

In brackets after ≈: the same amount, converted by molar mass. Counter-ions that a name gives are not always drawn. Like-named read-outs stand apart in the source and are kept apart here.

T2 sequence (P22894 100-262 limits assumed): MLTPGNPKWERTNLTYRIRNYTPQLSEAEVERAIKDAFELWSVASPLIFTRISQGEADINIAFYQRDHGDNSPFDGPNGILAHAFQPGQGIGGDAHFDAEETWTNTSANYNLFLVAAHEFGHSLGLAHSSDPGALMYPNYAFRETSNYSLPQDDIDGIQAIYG
T1 sequence (P08254 100-272 limits assumed): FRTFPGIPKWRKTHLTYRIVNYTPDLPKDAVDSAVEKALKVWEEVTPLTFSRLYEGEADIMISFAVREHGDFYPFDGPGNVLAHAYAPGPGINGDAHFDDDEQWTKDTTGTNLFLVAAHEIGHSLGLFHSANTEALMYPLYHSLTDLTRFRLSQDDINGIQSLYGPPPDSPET

Regarding `O=C(O)[C@@H](CCC(=O)N1CCc2ccccc21)NS(=O)(=O)c1ccc(-c2ccc(Cl)cc2)cc1` [Example 14], the values for the IC50 in data set [1] and in data set [2] were 50 nM and 10 nM, respectively.

With `O=C(O)[C@H](CCC(=O)N1CCc2cc(F)ccc21)NS(=O)(=O)c1ccc(-c2ccc(Br)cc2)cc1` [Example 11, 2-(4′-bromobiphenyl-4-sulfonylamino)-5-(5-fluoro-2,3-dihydroindol-1-yl)-5-ox-opentanoic acid], the IC50 in data set [1] stood at 100 nM. This lies in the sub-micromolar range.

On to `O=C(CC[C@H](NS(=O)(=O)c1ccc(-c2ccccc2)cc1)C(=O)O)NCCNc1ccccc1` [Example 3, 2-(biphenyl-4-sulfonylamino)-4-(2-phenylamino-ethylcarbamoyl)butyric acid], for which, in data set [1], the IC50 stood at 200 nM.

Turning to `O=C(CC[C@H](NS(=O)(=O)c1ccc(-c2ccccc2)cc1)C(=O)O)NCCCN1CCOCC1` [Example 5, 4-(3-(4-(Biphenyl-4-sulfonylamino)-4-carboxybutyrylamino)-propyl)morpholin-4-ium trifluoroacetate], the IC50 in data set [1] came out at 100 nM; in data set [2], 6 nM.

With `O=C(O)[C@H](CCC(=O)N1CCc2cc(F)ccc21)NS(=O)(=O)c1ccc(-c2ccc(N3CCOCC3)cc2)cc1` [Example 13, 5-(5-fluoro-2,3-dihydroindol-1-yl)-2-(4′-morpholin-4-yl-biphenyl-4-sulfonylamino)-5-oxopentanoic acid], the half-maximal inhibitory concentration (IC50) in data set [1] was 100 nM; in data set [2], 10 nM.

As to `O=C(CC[C@H](NS(=O)(=O)c1ccc(-c2ccccc2)cc1)C(=O)O)Nc1ccc2ccccc2c1` [Example 2, 2-(biphenyl-4-sulfonylamino)-4-(naphthalen-2-yl-carbamoyl)butyric acid], half-maximal inhibition in data set [1] (IC50) required 200 nM.

On to `O=C(O)[C@H](CCC(=O)N1CCc2cc(F)ccc21)NS(=O)(=O)c1ccc(-c2ccc(N3CCCC3)cc2)cc1` [Example 12, 5-(5-Fluoro-2,3-dihydroindol-1-yl)-5-oxo-2-(4′-pyrrolidin-1-ylbiphenyl-4-sulfonylamino)pentanoic acid], for which the IC50 in data set [1] turned out to be 30 nM; in data set [2], 2 nM.

As to `O=C(CC[C@H](NS(=O)(=O)c1ccc(-c2ccccc2)cc1)C(=O)O)Nc1cccc2ccccc12` [Example 1, 2-(biphenyl-4-sulfonylamino)4-(naphthalen-1-ylcarb-amoyl)butyric acid], the IC50 turned out to be 100 nM in data set [1] and 10 nM in data set [2].

`O=C(O)[C@H](CCC(=O)N1CCc2ccccc21)NS(=O)(=O)c1ccc(-c2ccccc2)cc1` [Example 6, 2-(Biphenyl-4-sulfonylamino)-5-(2,3-dihydroindol-1-yl)-5-oxopentanecarboxylic acid] gave an IC50 in data set [1] of 500 nM.

As to `O=C(O)[C@H](CCC(=O)N1CCc2ccccc21)NS(=O)(=O)c1ccc(-c2ccc(Cl)cc2)cc1` [Example 8, 2-(4′-Chlorobiphenyl-4-sulfonylamino)-5-(2,3-dihydroindol-1-yl)-5-oxopentanoic acid], the values for the IC50 in data set [1] and in data set [2] were 100 nM and 10 nM, respectively.

In data set [1], `O=C(O)[C@H](CCC(=O)N1CCc2ccccc21)NS(=O)(=O)c1ccc(-c2ccc(Br)cc2)cc1` [Example 9, 2-(4′-bromobiphenyl-4-sulfonyl-amino)-5-(2,3-dihydroindol-1-yl)-5-oxopentanoic acid] yielded an IC50 of 100 nM.

As for `NC(CO)(CO)CO.O=C(O)C(CCC(=O)N1CCc2ccccc21)NS(=O)(=O)c1ccc(-c2ccc(Cl)cc2)cc1` (stereo not shown) [Example 15, Tromethamine salt of 2-(4′-chlorobiphenyl-4-sulfonylamino)-5-(2,3-dihydroindol-1-yl)-5-oxopentanoic acid], in data set [3], the “Solubility in water at 25° C. After 3 h” value came to 58000 µg/mL; the “Solubility in water at 25° C. Result” value was determined as 58000 µg/mL; the “Solubility in water at 25° C. after 2 h” value stood at 58000 µg/mL; the “Water solubility of tromethamine salt higher than that of the free acid, factor” value is on record as about 600.

On to `O=C(O)[C@H](CCC(=O)N1CCc2ccccc21)NS(=O)(=O)c1ccc(-c2ccc(N3CCCC3)cc2)cc1` [Example 7, 5-(2,3-dihydroindol-1-yl)-5-oxo-2-(4′-pyrrolidin-1-yl-biphenyl-4-sulfonyl-amino)pentanoic acid], for which the IC50 in data set [1] stood at 40 nM; in data set [2] it was 4 nM.

In data set [1], `O=C(CC[C@H](NS(=O)(=O)c1ccc(-c2ccc(Cl)cc2)cc1)C(=O)O)NCCCN1CCOCC1` [Example 4, 2-(4′-chloro-biphenyl-4-sulfonylamino)-4-(3-morpholin-4-ylpropylcarbamoyl)butyric acid] returned an IC50 of 100 nM. This counts as sub-micromolar.

For the compound `O=C(O)[C@H](CCC(=O)N1CCc2ccccc21)NS(=O)(=O)c1ccc(-c2ccc(Cl)cc2)cc1` (stereo in doubt) [Example 8, 2-(4′-Chlorobiphenyl-4-sulfonylamino)-5-(2,3-dihydroindol-1-yl)-5-oxopentanoic acid], the solubility at 2 h in data set [3] (thermodynamic from solid, water, 25° C., stirred 2 h, mean value from two determinations, read-out: Solubility in water at 25° C. after 2 h) stood at 200 µg/mL (≈ 401 µM). In addition, the solubility at 3 h in data set [3] (thermodynamic from solid, water, 25° C., stirred 3 h, mean value from two determinations, read-out: Solubility in water at 25° C. After 3 h) was 100 µg/mL (≈ 200 µM). For the same compound, in data set [3] (water, 25° C., data value obtained after 3 h is used), the “Solubility in water at 25° C. Result” value came to 100 µg/mL (≈ 200 µM).

With `O=C(O)[C@H](CCC(=O)N1CCc2cc(F)ccc21)NS(=O)(=O)c1ccc(-c2ccc(Cl)cc2)cc1` [Example 10, 2-(4′-chloro-biphenyl-4-sulfonylamino)-5-(5-fluoro-2,3-dihydroindol-1-yl)-5-oxopentanoic acid], inhibition in data set [1] was half-maximal at 100 nM (IC50).

One may read the IC50 as the midpoint of a concentration-inhibition curve. A lower IC50 goes with greater potency in that assay. Broadly, the solubility is the concentration that dissolves in the medium under given conditions.

For the origin of these results see patent US6335333B1, “N-arylsulfonylamino acid omega-amides” (Aventis Pharma Deutschland GmbH, priority 1998, dated 2002).
